Marks after values point to notes of the source that are not given here.
Key:
PAI-1 [1] = biological target: T1, PAI-1 (Homo sapiens, UniProt P05121); test: PAI-1 Inhibitory Activity Assay (Reference Test Example 1 (1)); assay type: biochemical; conditions: 35 μM and 50 μM; FIG. 14
T1 construct: purchased Molecular Innovations Inc., USA (PAI-1); American Diagnostica, Inc., USA (t-PA)
Description: The compounds a and b (test compounds) were evaluated for inhibitory action on human PAI-1 (product of Molecular Innovations Inc., USA, hereinafter referred to the same). More specifically, human PAI-1 was added to a 0.1% Tween 80-containing 100 mM Tris-HCl (pH 8) solution each containing the above compound respectively in a given concentration (20, 35, 50 and 100 μM), and incubated at 37° C. for 15 minutes. Subsequently, added thereto was human tissue plasminogen activator (t-PA) (product of American Diagnostica, Inc., USA, hereinafter referred to the same), adjusted to […], and further incubated at 37° C. for 15 minutes. Then, 1.25 mM of S-2288 synthesized substrate (product of Chromogenix, Italy, hereinafter referred to as the same), a chromogenic substrate, was added thereto. The final mixed solution contained 100 mM Tris-HCl (pH 8), 30 mM NaCl, 1% DMSO, 0.1% Tween […], 9.8 nM t-PA, 1 mM S-2288 and the test compound a or b (20, 35, 50 or 100 μM).
Free radical p-nitroanilide removed from the chromogenic substrate (S-2288) by t-PA action was measured using a spectrophotometer at an absorbance of 405 nm, every 5 minutes, for 30 minutes. […]

PAI-1 [2] = biological target: T1, PAI-1; test: Fibrinolytic Action Assay (fibrin plate, PAI-1 + t-PA + test compound); assay type: biochemical; conditions: mixture of PAI-1, t-PA and test compound, 18 hours at room temperature
Description: The compounds a and b were evaluated for fibrinolytic action in accordance with the method disclosed in the document (Matsuo, O. et al., Haemostasis 16, 43-50 (1986)).
More specifically, an aqueous solution (25 mM barbital sodium, 50 mM NaCl, and 25 mM CaCl2) containing a concentration of 1.5 mg/ml of fibrinogen (product of Organon Teknica) was added on a 9 cm-plate to thrombin (10NIH U/ml: product of Mochida Pharmaceutical Co., Ltd.) dissolved in a 0.2 ml physiological saline, and the mixture was allowed to stand for 2 hours at room temperature. Using this mixture, fibrinolysis assay was conducted.
Namely, a mixture of PAI-1, t-PA and a test compound were dropped onto the above-mentioned plate, and incubated for 18 hours at room temperature. Fibrinolysis due to the plasminogen activation was assayed in terms of the lysed area on the plate.

[3] = test system: bleomycin-induced pulmonary fibrosis; test: Effects on bleomycin-induced pulmonary fibrosis (mouse model); assay type: in vivo
Description: (§1) A C57BL/6 mouse (male, body weight 19 to 21 g) was intraperitoneally anesthetized with pentobarbital, and an incision was made on the cervical organ. Ten mice were used as controls. The control mice (n=10) were endotracheally administered with bleomycin (product of Nippon Kayaku Co., Ltd.) (1.5 U/kg), lysed in physiological saline, twice a day for 14 days. On the other hand, the test mice were subjected to forcible oral administration with the compound b (200 mg/kg), suspended in a 0.5% carboxymethyl cellulose aqueous solution, twice a day for 14 days, in addition to the above endotracheal administration. Then, the lung tissues taken from these control mice and the test mice were analyzed, and further assayed for hydroxyproline levels. The hydroxyproline levels in the lung tissues were assayed in terms of the level in the hydrolysate of the lung tissues as described in the method of Kivirikko et al (Anal. Biochem. 19, 249-255 (1967)). Pulmonary fibrosis levels (severity) were scored from 0 to 8, based on the method of Ashcort et al (J. Clin. Pathol. 41, 467-470, (1988)). Further, the control mice and test mice were assayed for plasma PAI-1 activity (ng/ml). The results of lung tissue analysis were shown in FIG. 15 (a represents fibrosis score and b is a set of histological stain images).

plasma PAI-1 = biological target: T2, plasma PAI-1 (Mus musculus, UniProt P22777); test: Plasma PAI-1 activity in mice with bleomycin-induced pulmonary fibrosis; assay type: in vivo
T2 construct: from tissue; host or cells: mouse plasma (C57BL/6, male)
T2 sequence (P22777 23-402): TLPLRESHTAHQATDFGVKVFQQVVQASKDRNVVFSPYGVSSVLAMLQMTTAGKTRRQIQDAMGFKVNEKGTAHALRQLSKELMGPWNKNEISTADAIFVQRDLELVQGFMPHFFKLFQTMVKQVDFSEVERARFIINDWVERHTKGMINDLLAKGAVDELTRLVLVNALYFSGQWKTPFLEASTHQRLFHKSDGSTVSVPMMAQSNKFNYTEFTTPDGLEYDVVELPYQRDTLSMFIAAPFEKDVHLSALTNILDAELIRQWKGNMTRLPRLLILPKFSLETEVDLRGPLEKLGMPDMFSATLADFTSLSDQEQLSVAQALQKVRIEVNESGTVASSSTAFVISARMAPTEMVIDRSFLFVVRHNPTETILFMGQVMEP
Description: as §1

[4] = C57BL/6 mice, bleomycin, 200 mg/kg p.o. twice/day for 14 days in 0.5% CMC, n=10, mean±SE
[5] = versus elevation by bleomycin, 200 mg/kg p.o. twice a day

T1 sequence (P05121 24-402): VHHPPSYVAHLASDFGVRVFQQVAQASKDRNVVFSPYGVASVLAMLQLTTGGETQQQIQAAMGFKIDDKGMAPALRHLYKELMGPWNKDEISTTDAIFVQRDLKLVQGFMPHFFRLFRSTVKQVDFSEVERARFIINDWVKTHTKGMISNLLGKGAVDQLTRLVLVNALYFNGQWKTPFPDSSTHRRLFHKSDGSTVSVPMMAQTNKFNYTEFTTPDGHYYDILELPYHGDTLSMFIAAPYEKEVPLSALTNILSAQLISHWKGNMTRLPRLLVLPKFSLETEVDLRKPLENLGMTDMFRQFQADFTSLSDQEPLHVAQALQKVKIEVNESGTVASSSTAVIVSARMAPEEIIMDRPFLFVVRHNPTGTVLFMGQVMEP

| Compound | PAI-1 activity inhibitory action compared with tiplaxtinin (PAI-1 [1]) | fibrinolysis (lysed area on the plate) (PAI-1 [2]) | Hydroxyproline Level in Lung Tissue [3, 4] | fibrosis score ([3]; scored from 0 to 8 (Ashcroft), bleomycin mice, 200 mg/kg p.o. twice a day for 14 days, FIG. 15) | hydroxyproline level in the lung tissues (in words) [3, 5] | Plasma PAI-1 Activity (plasma PAI-1; [4]) | plasma PAI-1 activity (in words) (plasma PAI-1; [5]) |
| --- | --- | --- | --- | --- | --- | --- | --- |
| CCC(CC(=O)Nc1scc(-c2ccccc2)c1C(=O)O)C(=O)Nc1scc(-c2ccccc2)c1C(=O)O (stereo not drawn) [compound a, 2-[3-(3′-Carboxy-4′-phenylthiophen-2′-ylcarbamoyl)-pentanoylamino]-4-phenylthiophen-3-carboxylic acid] | higher PAI-1 activity inhibitory action at concentrations of 35 μM and 50 μM than tiplaxtinin | inhibit the fibrinolysis suppression caused by PAI-1 | – | – | – | – | – |
| CCC(CC(=O)Nc1scc(-c2cccs2)c1C(=O)O)C(=O)Nc1scc(-c2cccs2)c1C(=O)O (stereo not drawn) [compound b, 2-[3-(3′-carboxy-4′-thienylthiophen-2′-ylcarbamoyl)-pentanoylamino]-4-thienylthiophen-3-carboxylic acid] | higher PAI-1 activity inhibitory action at concentrations of 35 μM and 50 μM than tiplaxtinin | inhibit the fibrinolysis suppression caused by PAI-1 | 204.2 ± 9.5^b μg/lung | 2.9±0.42 | significantly decreases | 1.2 ± 0.1^b ng/ml | significantly decreases |

Source: patent publication US7951806B2, “Plasminogen activator inhibitor-1 inhibitor” (Renascience Co., Ltd., priority 2007, dated 2011)
